Like-named read-outs stand apart in the source and are kept apart here.
Columns and labels:
[1] = molecular target: CYP1A2 (Homo sapiens (Human), UniProt P05177); test: Cytochrome P450 inhibition in human liver microsomes, CYP1A2
[2] = molecular target: T1, CYP2C19 (Homo sapiens (Human), UniProt P33261); settings: microsomes
[3] = Human plasma stability; type: in vitro ADME; settings: plasma; for % Remaining @ 2 h: 5 μM
Procedure, shortened: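 Protocol 1: 1 μM compound in pH 7.4 sodium-heparin human plasma at 37° C, sampled 0–120 min. Protocol 2: 5 μM in plasma at pH 7.4–8.0, 37° C, duplicates, sampled 0–120 min. Both: LC-MS/MS percent remaining versus t0; half-life from single-phase exponential decay.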

[4] = molecular target: T2, CYP3A4 (Homo sapiens (Human), UniProt P08684); settings: microsomes, 5 min
[5] = molecular target: rat brain nicotinic receptor (α7 NAChR) (Rattus norvegicus (Rat), UniProt Q05941); type: binding
[6] = Metabolic stability assay in human liver microsomes (HLM); type: in vitro ADME; settings: 1 μM
Procedure, shortened: (§1)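 In Protocol 1, compound was 1 μM final with NADPH at 37 °C, sampled at 0–45 min. In Protocol 2, 1.5 μM compound with 0.75 mg/mL microsomes (pre-NADPH mix) in 0.1 M potassium phosphate, 1 mM EDTA, pH 7.4 was pre-incubated 10 min, then NADPH started the reaction. Both: LC-MS/MS % remaining versus time 0, half-life from single-phase exponential fit.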

[7] = Metabolic stability assay in rat liver microsomes (RLM); type: in vitro ADME; settings: 1 μM
Procedure, shortened: as §1

[8] = molecular target: T2, CYP3A4; test: Cytochrome P450 inhibition in human liver microsomes, CYP3A4
[9] = molecular target: CYP2D6 (Homo sapiens (Human), UniProt P10635); test: Cytochrome P450 inhibition in human liver microsomes, CYP2D6
[10] = molecular target: CYP2C9 (Homo sapiens (Human), UniProt P11712); test: Cytochrome P450 inhibition in human liver microsomes, CYP2C9; settings: read-out: 2C9 IC50, Protocol 1
[11] = molecular target: T1, CYP2C19; test: Cytochrome P450 inhibition in human liver microsomes, CYP2C19; settings: read-out: 2C19 IC50, Protocol 1
[12] = read-out: 3A4 IC50 (Midazolam), substrate midazolam, Protocol 1
[13] = read-out: 3A4 IC50 (Testosterone), substrate testosterone, Protocol 1
[14] = Protocol No. 1, human liver microsomes
[15] = Protocol No. 1, rat liver microsomes

T2 sequence (P08684 whole entry): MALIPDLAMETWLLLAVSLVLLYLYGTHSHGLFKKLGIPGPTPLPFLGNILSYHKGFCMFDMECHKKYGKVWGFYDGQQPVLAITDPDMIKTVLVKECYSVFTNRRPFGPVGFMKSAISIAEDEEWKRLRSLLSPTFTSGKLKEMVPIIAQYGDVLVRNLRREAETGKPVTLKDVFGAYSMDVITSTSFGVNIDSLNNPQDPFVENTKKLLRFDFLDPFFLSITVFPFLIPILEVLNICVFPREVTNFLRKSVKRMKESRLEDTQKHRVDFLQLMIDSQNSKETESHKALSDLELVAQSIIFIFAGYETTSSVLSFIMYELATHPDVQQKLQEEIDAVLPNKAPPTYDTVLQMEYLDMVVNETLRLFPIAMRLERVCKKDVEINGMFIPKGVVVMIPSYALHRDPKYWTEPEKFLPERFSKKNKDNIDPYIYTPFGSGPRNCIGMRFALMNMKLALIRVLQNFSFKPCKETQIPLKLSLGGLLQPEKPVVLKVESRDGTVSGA
Sequence of rat brain nicotinic receptor (α7 NAChR) (Q05941 23-502 limits assumed): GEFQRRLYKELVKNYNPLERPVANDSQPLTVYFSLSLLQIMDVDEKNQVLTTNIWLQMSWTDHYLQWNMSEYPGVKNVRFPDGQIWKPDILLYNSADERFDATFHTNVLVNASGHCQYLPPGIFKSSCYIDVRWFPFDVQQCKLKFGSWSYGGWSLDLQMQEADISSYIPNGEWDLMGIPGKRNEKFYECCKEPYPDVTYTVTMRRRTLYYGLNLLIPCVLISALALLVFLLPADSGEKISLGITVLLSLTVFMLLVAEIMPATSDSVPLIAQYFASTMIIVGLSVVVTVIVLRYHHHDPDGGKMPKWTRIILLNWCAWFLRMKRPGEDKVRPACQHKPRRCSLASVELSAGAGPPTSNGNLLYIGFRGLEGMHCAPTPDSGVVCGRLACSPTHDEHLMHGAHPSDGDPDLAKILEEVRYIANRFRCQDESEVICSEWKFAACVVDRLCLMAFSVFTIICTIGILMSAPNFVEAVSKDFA
Sequence of CYP1A2 (P05177 whole entry): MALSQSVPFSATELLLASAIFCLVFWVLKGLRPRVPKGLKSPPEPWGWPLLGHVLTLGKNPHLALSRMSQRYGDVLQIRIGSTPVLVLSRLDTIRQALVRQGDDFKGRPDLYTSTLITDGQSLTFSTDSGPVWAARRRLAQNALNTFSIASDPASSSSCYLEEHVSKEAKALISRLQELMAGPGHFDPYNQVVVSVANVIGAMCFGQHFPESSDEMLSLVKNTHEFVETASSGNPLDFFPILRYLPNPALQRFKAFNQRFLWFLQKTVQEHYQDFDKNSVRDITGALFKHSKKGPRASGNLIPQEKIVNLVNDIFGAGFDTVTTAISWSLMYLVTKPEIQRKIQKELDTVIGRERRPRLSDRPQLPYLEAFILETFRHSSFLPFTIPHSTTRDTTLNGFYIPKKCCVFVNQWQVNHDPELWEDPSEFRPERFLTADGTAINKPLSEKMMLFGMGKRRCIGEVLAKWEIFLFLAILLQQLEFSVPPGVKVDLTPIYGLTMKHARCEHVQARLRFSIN
Sequence of CYP2C9 (P11712 whole entry): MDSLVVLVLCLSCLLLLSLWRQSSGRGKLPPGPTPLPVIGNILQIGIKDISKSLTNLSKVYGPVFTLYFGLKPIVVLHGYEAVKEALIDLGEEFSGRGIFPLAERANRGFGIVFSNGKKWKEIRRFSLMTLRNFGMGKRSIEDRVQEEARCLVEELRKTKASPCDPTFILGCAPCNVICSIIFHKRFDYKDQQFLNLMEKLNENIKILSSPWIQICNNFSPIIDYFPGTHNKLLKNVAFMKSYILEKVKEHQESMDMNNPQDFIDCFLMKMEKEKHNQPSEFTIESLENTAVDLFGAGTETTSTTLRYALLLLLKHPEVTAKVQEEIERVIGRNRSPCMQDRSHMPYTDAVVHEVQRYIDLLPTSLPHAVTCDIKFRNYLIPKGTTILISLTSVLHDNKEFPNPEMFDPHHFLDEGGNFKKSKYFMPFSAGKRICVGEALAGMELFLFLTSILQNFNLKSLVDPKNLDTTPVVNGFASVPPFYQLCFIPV
Sequence of CYP2D6 (P10635 whole entry): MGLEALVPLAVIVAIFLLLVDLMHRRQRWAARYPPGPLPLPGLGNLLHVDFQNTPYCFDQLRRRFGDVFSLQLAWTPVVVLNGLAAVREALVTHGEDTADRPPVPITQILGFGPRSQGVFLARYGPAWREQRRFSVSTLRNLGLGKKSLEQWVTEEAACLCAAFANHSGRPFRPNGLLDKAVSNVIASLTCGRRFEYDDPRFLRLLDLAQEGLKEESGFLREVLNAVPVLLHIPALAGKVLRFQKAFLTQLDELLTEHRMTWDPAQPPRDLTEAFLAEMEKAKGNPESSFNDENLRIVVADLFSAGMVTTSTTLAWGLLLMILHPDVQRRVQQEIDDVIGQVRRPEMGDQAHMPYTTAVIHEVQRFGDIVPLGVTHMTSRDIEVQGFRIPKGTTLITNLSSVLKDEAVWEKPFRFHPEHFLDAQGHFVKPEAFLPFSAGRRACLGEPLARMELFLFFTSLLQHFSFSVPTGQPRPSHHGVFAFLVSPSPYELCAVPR
T1 sequence (P33261 whole entry): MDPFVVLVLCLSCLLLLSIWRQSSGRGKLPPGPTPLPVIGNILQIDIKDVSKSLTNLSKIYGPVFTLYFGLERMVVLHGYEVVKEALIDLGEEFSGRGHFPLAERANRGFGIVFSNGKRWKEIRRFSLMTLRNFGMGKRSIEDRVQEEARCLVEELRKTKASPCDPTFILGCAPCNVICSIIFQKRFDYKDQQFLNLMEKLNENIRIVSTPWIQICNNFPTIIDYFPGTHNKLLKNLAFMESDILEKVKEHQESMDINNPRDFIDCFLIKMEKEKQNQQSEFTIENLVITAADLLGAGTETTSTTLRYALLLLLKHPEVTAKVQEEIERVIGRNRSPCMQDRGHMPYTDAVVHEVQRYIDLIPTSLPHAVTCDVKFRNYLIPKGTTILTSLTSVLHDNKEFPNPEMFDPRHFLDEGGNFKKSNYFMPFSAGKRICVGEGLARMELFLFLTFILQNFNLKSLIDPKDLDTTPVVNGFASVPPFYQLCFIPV

## COc1cc(Cl)c2c(C(=O)OCC34CCN(CC3)CC4)c[nH]c2c1 [Compound 38, quinuclidin-4-ylmethyl 4-chloro-6-methoxy-1H-indole-3-carboxylate]
[1]; read-out: 1A2 IC50, Protocol 1
  IC50: > 10 µM
[2]; 45 min
  IC50: > 10 µM
[3]; human
  T1/2: ∞
[3]; human, 2 h
  % Remaining @ 2 h: 96.52%
[4]
  IC50: > 10 µM
[5]
  IC50: 0.396 µM
  Ki: 0.341 µM
[6]; human, microsomes
  HLM: 8.15 mL/min/kg
[7]; rat, microsomes
  RLM: 76.79 mL/min/kg

## Cc1ccc2c(C(=O)OCC34CCN(CC3)CC4)c[nH]c2c1.Cl [Compound 45, Quinuclidin-4-ylmethyl 6-methyl-1H-indole-3-carboxylate hydrochloride]
[1]; read-out: 1A2 IC50, Protocol 1
  IC50: > 10 µM
[8]; [12]
  IC50: > 10 µM
[8]; [13]
  IC50: > 10 µM
[3]; Protocol No. 2, 37° C.
  % Remaining @ 2 h: 47.32%
[5]
  IC50: 0.0736 µM
  Ki: 0.0631 µM
[9]; read-out: 2D6 IC50, Protocol 1
  IC50: > 10 µM
[10]
  IC50: > 10 µM
[6]; [14]
  HLM: 2.976 mL/min/kg
[11]
  IC50: > 10 µM
[7]; [15]
  RLM: 170.981 mL/min/kg

## Cc1cccc2c(C(=O)OCC34CCN(CC3)CC4)c[nH]c12 [Compound 19, quinuclidin-4-ylmethyl 7-methyl-1H-indole-3-carboxylate]
[1]; read-out: 1A2 IC50, Protocol 2
  IC50: > 10 µM
[2]
  IC50: > 10 µM
[5]
  IC50: 0.764 µM
  Ki: 0.665 µM
[9]; read-out: 2D6 IC50, Protocol 2
  IC50: > 10 µM
[6]; human, microsomes, pH 7.4
  HLM: <13.608 mL/min/kg
[7]; rat, microsomes, pH 7.4
  RLM: 280.991 mL/min/kg

## Cl.O=C(OCC12CCN(CC1)CC2)c1c[nH]c2cc(F)c(F)cc12 [Compound 51, Quinuclidin-4-ylmethyl 5,6-difluoro-1H-indole-3-carboxylate hydrochloride]
[1]; read-out: 1A2 IC50, Protocol 1
  IC50: > 10 µM
[8]; [12]
  IC50: > 10 µM
[8]; [13]
  IC50: > 10 µM
[3]; Protocol No. 2, 37° C.
  % Remaining @ 2 h: 79.3649%
[5]
  IC50: 0.662 µM
  Ki: 0.568 µM
[9]; read-out: 2D6 IC50, Protocol 1
  IC50: > 10 µM
[10]
  IC50: > 10 µM
[6]; [14]
  HLM: 1.004 mL/min/kg
[11]
  IC50: > 10 µM
[7]; [15]
  RLM: 716.882 mL/min/kg

## COc1cc(C)c2c(C(=O)OCC34CCN(CC3)CC4)c[nH]c2c1 [Compound 37, quinuclidin-4-ylmethyl 6-methoxy-4-methyl-1H-indole-3-carboxylate]
[1]; read-out: 1A2 IC50, Protocol 1
  IC50: > 10 µM
[3]; human
  T1/2: ∞
[3]; human, 2 h
  % Remaining @ 2 h: 108.49%
[4]
  IC50: > 10 µM
[10]
  IC50: > 10 µM
[6]; human, microsomes
  HLM: 20.18 mL/min/kg
[11]
  IC50: > 10 µM
[7]; rat, microsomes
  RLM: 33.07 mL/min/kg

## Cc1cc(Br)c2c(C(=O)OCC34CCN(CC3)CC4)c[nH]c2c1 [Compound 49, quinuclidin-4-ylmethyl 4-bromo-6-methyl-1H-indole-3-carboxylate]
[1]; read-out: 1A2 IC50, Protocol 1
  IC50: > 10 µM
[2]; 45 min
  IC50: > 10 µM
[3]; human, 2 h
  % Remaining @ 2 h: 93.39%
[4]
  IC50: > 10 µM
[5]
  IC50: 0.25 µM
  Ki: 0.214 µM
[6]; human, microsomes
  HLM: 5.963 mL/min/kg
[7]; rat, microsomes
  RLM: 254.566 mL/min/kg

## O=C(OCC12CCN(CC1)CC2)c1c[nH]c2cc(F)cc(Br)c12 [Compound 41, quinuclidin-4-ylmethyl 4-bromo-6-fluoro-1H-indole-3-carboxylate]
[1]; read-out: 1A2 IC50, Protocol 1
  IC50: > 10 µM
[3]; human
  T1/2: ∞
[3]; human, 2 h
  % Remaining @ 2 h: 120.27%
[4]
  IC50: > 10 µM
[5]
  IC50: 0.76 µM
  Ki: 0.655 µM
[10]
  IC50: > 10 µM
[6]; human, microsomes
  HLM: 7.55 mL/min/kg
[11]
  IC50: > 10 µM
[7]; rat, microsomes
  RLM: 86.59 mL/min/kg

## O=C(OCC12CCN(CC1)CC2)c1c[nH]c2cc(O)cc(Br)c12 [Compound 53, quinuclidin-4-ylmethyl 4-bromo-6-hydroxy-1H-indole-3-carboxylate]
[1]; read-out: 1A2 IC50, Protocol 1
  IC50: > 10 µM
[8]; [12]
  IC50: > 10 µM
[8]; [13]
  IC50: > 10 µM
[3]; Protocol No. 2, 37° C.
  % Remaining @ 2 h: 95.5%
[5]
  IC50: 0.0536 µM
  Ki: 0.046 µM
[9]; read-out: 2D6 IC50, Protocol 1
  IC50: > 10 µM
[10]
  IC50: > 10 µM
[6]; [14]
  HLM: 8.304 mL/min/kg
[11]
  IC50: > 10 µM
[7]; [15]
  RLM: 29.9085 mL/min/kg

## COc1ccc2[nH]cc(C(=O)OCC34CCN(CC3)CC4)c2c1Br [Compound 47, quinuclidin-4-ylmethyl 4-bromo-5-methoxy-1H-indole-3-carboxylate]
[1]; read-out: 1A2 IC50, Protocol 1
  IC50: > 10 µM
[2]; 45 min
  IC50: > 10 µM
[3]; human, 2 h
  % Remaining @ 2 h: 72.43%
[4]
  IC50: > 10 µM
[5]
  IC50: 0.0333 µM
  Ki: 0.0285 µM
[6]; human, microsomes
  HLM: 13.5926 mL/min/kg
[7]; rat, microsomes
  RLM: 541.358 mL/min/kg

Reference: US9434724B2, “Quinuclidines for modulating alpha 7 activity” (priority 2014, dated 2016)
